This is an account of results in publication PMC7076013 (Scientific Reports, 2020).

SMILES strings stand for the structures.

In one assay the test system is A375, human melanoma. The assay can be described thus: MTT cell viability, A375. The format is cell-based. As to conditions: 48 h, MTT or CV. The method, then: Both melanoma and colon cancer are tumor types tightly connected with inflammation, while the expression of COX-2 in the selected cell lines was highly variable. Since a lot of discrepancies were found in the literature concerning the expression of this enzyme[5],[48]–[53], both COX-1 and COX-2 expression was analyzed by Western blot. […] The cells were treated with a wide range of doses of 4a–c, 5, and 6 for 48 h and cell viability was determined by MTT (3-(4,5-dimethylthiazol-2-yl)-2,5-diphenyltetrazolium bromide) and CV (crystal violet) assays. The obtained IC50 values were similar for both assays (Table 1).
Reagents were obtained from Sigma (St. Louis, MO) unless indicated otherwise. Annexin V - FITC (AnnV) was acquired from Biotium (Hayward, CA) and Apostat from R&D (R&D S ystems, Minneapolis, MN USA). […] After being detached b y tr ypsinization, cells were seeded in defined number as follows: 2.5 × 10^3 cells/well in 96-well plates for viability assessment and 2 × 10^4 cells/well in 24-well plates for flow cytometry. […]
Committee at IBISS (02- 09/1 6). Cells were counted and seeded in 96-well plates and incubat ed overnight. Before treatment, non- adherent cells were removed. Compounds 4a- c, 5 and 6 were dissolved in DMSO and stored at −20 °C for a m onth. Working solutions were freshl y prepared in 10% FCS-RPMI-1640. Controls were treated with culture medium containing the equivalent […]
3.2. Cell viability tests.
The number of viable cel ls in culture was estimated by the MTT (3-(4,5- dimethylthiazol- 2-yl ) - 2,5- diphenyltetrazolium bromide) and CV (crystal violet) tests. Cells were incubated in the presence of compounds 4a- c, 5 and 6 for 48 h, then the viability was measured as described.4 […]
The results were ex pressed as a p er centage of a v alue obtained for the untr eated control cells that was arbitrarily set to be 100%. A non- linear regression analysis of obtained results was done b y using Gr aphPad Prism software to calculat e IC50 values. […]

In assay [1] the test system is COX-2-negative (HCT-116) human colon cancer cell line. To be noted: cited from earlier work.
For assay [2], the system named is COX-2-overexpressing (HCA-7) human colon cancer cell line. To be noted: cited from earlier work.

As for `CS(=O)(=O)c1ccc(C2=C(c3ccccc3)C(=O)OC2)cc1` [Rofecoxib], the “viability of A375 cells” value in the assay on A375, human melanoma is “did not result in significantly decreased viability”. The “activity against HCT-116” value in assay [1] was “inactive”. The “activity against HCA-7” value in assay [2] was “inactive”.
